Two compounds from US20170216360A1, “METHODS AND COMPOSITIONS FOR IMPROVING HOMING OF CELLS INCLUDING MESENCHYMAL STEM CELLS” (SANOFI, priority 2014, published 2017) can be followed below.

Entries after “also recorded” stand apart in the source; their conditions may differ. Counter-ions that a name gives are not always drawn. Like-named read-outs stand apart in the source and are kept apart here. Some results are limits rather than exact numbers.

The subject of assay [1] is LPS-induced inflamed mouse ear. Description: In vivo MSC homing to LPS-induced inflamed ear after systemic infusion, intravital microscopy. On the set-up: key to In vivo functional assay (homing): NA = negative activity result; A = positive activity result. The conditions noted are these: for Increase of MSC homing to inflamed ear (%): relative to untreated cells; for MSC homing to the inflamed ear in vivo, result in words: vs vehicle-treated control. How it is done: C57BL/6 mice (Charles River Laboratories, Wilmington, Mass.) were anesthetized with ketamine/xylazine and their ears shaved 24 h prior to cell infusion. To induce an inflammatory response, 30 μg of E. coli lipopolysaccharide (LPS, Sigma, St. Louis, Mo.) in 50 μL saline was injected into the pinna of the left ear, with 50 μL 0.9% saline injected into the right ear as a control. For in vivo dye sensitivity validation, 1×10e6 cells of each stain were suspended in 150 μL PBS (pH 7.4) and injected by retro-orbital vein infusion.
To evaluate the minimum number of cells needed for a reproducible response, each mouse (n=4) received a range of cell doses (10,000, 50,000, 100,000, or 500,000) each of cells stained with Dil or DiD with a dye switch (i.e., dyes used for experimental and control cells were alternated to prevent bias based on the dyes that were used). To evaluate the impact of small molecule hit pre-treatment on MSC homing to the inflamed ear, MSCs were incubated with 3 μM of the small molecule hit or 0.1% DMSO as a control for 24 h before staining and in vivo administration. To highlight the vasculature, 50 μL of 10 mg/mL FITC-dextran ([…]; Sigma, St. Louis, Mo.) was injected retro-orbitally prior to imaging.
In vitro staining and in vivo homing of stained MSCs to the skin was imaged noninvasively in real time using a custom-built video-rate laser-scanning confocal microscope designed specifically for live animal imaging. For in vivo imaging, the mouse ear was positioned under a coverslip with methylcellulose gel and images acquired at 30 frames per second at a depth up to 200 μm using a 60×1.0NA water immersion objective lens (Olympus, Center Valley, Pa.). DiO labeled MSCs were excited with a 491 nm continuous wave (CW) laser (Cobalt, Stockholm, Sweden), and detected through a 520±20 nm bandpass filter (Semrock, Inc., Rochester, N.Y.). Dil labeled MSCs were excited with a 561 nm CW laser (Coherent, Inc., Santa Clara, Calif.) and detected through a 593 nm±40 nm filter (Omega Optical, Brattleboro, Vt.). DiD labeled MSCs were excited with a 635 nm CW laser (Coherent, Inc., Santa Clara, Calif.) and detected through a 695 nm±27.5 nm band pass filter (Omega Optical, Brattleboro, Vt.). DiR labeled MSCs were excited using a femtosecond Ti:Sapphire Maitai source for single photon excitation at 750 nm (Spectra Physics, Santa Clara, Calif.) and collected through a 785 nm±31 nm band pass filter (Omega Optical, Brattleboro, Vt.).
For quantification, the average number of cells in 20 representative imaging locations across the inflamed region was counted in each mouse. Cells were defined as having a diameter from 10-30 μm to eliminate debris and clumps from analysis, and a primary channel intensity greater than 2 to eliminate autofluorescent events. The average relative detection sensitivity (ratio of Dil/DiD counts) determined in the overall dye efficiency experiments were used to scale the counts for DiD stained cells. […] For multiple comparisons, Tukey's HSD test was used. Error bars in graphs represent standard error, and statistical significance is denoted by * p<0.05.

Assay [2] relates to CD11a surface expression on huMSCs. As to the kind of experiment: Medium throughput screen: CD11a surface expression on MSCs, PE-CY5 anti-CD11a antibody, laser-scanning fluorescence microplate cytometer. More on the design: key to Cell surface ligand CD11a (induction of expression): NA = negative activity result; A = positive activity result. The note with it: for EC50: read-out: Cell Surface Marker ED 50 (M) Molar Concentration of Compound for CD11a Expression. The class given is cell-based, human. Here is the method:
An in vitro screen was performed for compounds that induce surface expression on huMSCs of the marker CD11a (LFA-1). This screen may be considered a medium throughput screen. Certain compounds that induce the increase of this surface marker were then selected for testing in an in vitro firm adhesion assay and/or in vivo systemic administration in an animal model of inflammation. The surface expression screen involved fluorophore-conjugated antibodies to the respective markers. Following pretreatment with the test compounds, samples of cells were incubated with the labeled antibodies for detection of surface marker expression and change relative to a reference level of untreated cells or negative control samples or values. Cells were pretreated with a concentration (3 μM) of each small molecule compound for 24 hours, followed by incubation with a fluorophore-conjugated anti-marker antibody to detect expression on MSC surface. Surface expression levels of marker ligands were then evaluated by laser-scanning fluorescence microplate cytometer. […] Cell viability in response to compounds was also tested to assess whether molecules have toxicity after 24 hours of pretreatment. Testing was performed on two different huMSC sources representing cells from different donors.
Further details of the screening approach are provided as follows. A unique single batch of bone marrow-derived MSC cells was prepared for the entire screening campaign by cell amplification using CellStack flasks and freezing in separate vials at passage P5. […] For each run, vials were thawed and cells directly seeded on 384-well plates at 3,000 cells per well in MSCGM medium. Following an overnight incubation, cells were treated with the indicated concentrations of compounds for 24 hours. Cells were washed in PBS, 3% BSA and incubated for one hour with PE-CY5-conjugated anti-CD11a monoclonal antibody (clone HI111). Expression of CD11a at the cell surface was detected using the Acumen Explorer, a laser-scanning fluorescence microplate cytometer after two PBS washings. HL-60 cells seeded at 10,000 cells per well and treated with 100 nM phorbol 12-myristate 13-acetate (PMA) for 24 h to induce cell adhesion were used as a positive control in each 384-well plate. Positive compounds were counter-screened for their auto-fluorescence by measuring the signal in the absence of antibody.
A single batch of bone marrow-derived MSC was prepared for the entire screening campaign by cell amplification using CellStack flasks and freezing in separate vials at passage P5. […] For each run, vials were thawed and cells directly seeded on 384-well plates at 3,000 cells per well in MSCGM medium. Following an overnight incubation, cells were pretreated with a low (0.1 μM) and high (3 μM) concentration of the compounds for 24 h. 9,000 cpds were tested in 112 assay plates, each 384-well plate contained 320 cpds (from column 5 to 24), one column for Max (Column2, HL60 cells) and one column for Min (Column4, MSC cells). Cells were washed in PBS, 3% BSA and incubated for one hour with PE-CY5-conjugated anti-CD11a monoclonal Ab (BD Biosciences). Expression of CD11a at the cell surface was detected after two PBS washes using the Acumen Explorer equipment, a laser-scanning fluorescence microplate cytometer. HL-60 cells (seeded at 10,000 cells per well and treated with 100 nM phorbol 12-myristate 13-acetate (PMA) for 24 h to induce cell adhesion) were used as a positive control in each 384-well plate. Positive compounds were counter-screened for their auto-fluorescence by measuring the signal in the absence of Ab. Shown in FIG. 4 is the global screening data. Using the Max, Min columns, we have calculated Max/Min ratio generated with CD11a Ab for each assay plate (signal/background ration in green columns was calculated for each of the 112 assay plates). […]

Setting [3] is: MSCs pretreated 3 μM 24 h, 24 h after infusion.

As to `CCc1c2c(nc3ccc(OC(=O)N4CCC(N5CCCCC5)CC4)cc13)-c1cc3c(c(=O)n1C2)COC(=O)[C@]3(O)CC` [Compound 1927, reference compound], the “MSC homing to skin in the inflamed ear, average cells” value in assay [1] (setting [3]) came out at 47.2±20.4 cells/cm^2. For the same compound, in assay [1], the “Increase of MSC homing to inflamed ear (%)” value stood at 0% and the “MSC homing to the inflamed ear in vivo, result in words” value is listed as “no impact; also recorded: did not affect MSC homing”. Further, in assay [2] (24 h pretreatment), the “CD11a surface expression on MSCs, result in words” value is listed as “did not increase”. For the same compound, the EC50 in assay [2] (Homo sapiens, pretreatment of huMSCs) is greater than 3e-05 M.

Regarding `Cn1cc(C2=C(c3c4n(c5ccccc35)CCC(CN)C4)C(=O)NC2=O)c2ccccc21` (stereo not shown) [Compound 1929, 3-(8-aminomethyl-6,7,8,9-tetrahydro-pyrido[1,2-a]indol-10-yl)-4-(1-methyl-1H-indol-3-yl)-pyrrole-2,5-dione hydrochloride], in assay [1] (setting [3]), the “Increase of MSC homing to inflamed ear compared to vehicle-treated MSCs” value was 69.3±11.3% and the “MSC homing to skin in the inflamed ear, average cells” value was found to be 78.5±15.9 cells/cm^2. The “Increased homing versus vehicle-treated MSCs, without CD11a blocking” value in assay [1] (inflamed ear) came out at 70%. For the same compound, in assay [1] (inflamed ear, anti-human CD11a clone TS1/22), the “Increased homing versus vehicle-treated MSCs, CD11a blocked prior to infusion” value is given as “less than 10%”. In assay [1] (hydrochloride), the “Increase of MSC homing to inflamed ear (%)” value amounted to 73%. In assay [1] (systemic administration of pretreated huMSCs), the “In vivo functional assay (homing)” value was “A”. Also, the “MSC homing to the inflamed ear in vivo, result in words” value in assay [1] is given as “significantly promoted MSC homing”. In assay [2] (24 h pretreatment), the “CD11a surface expression on MSCs compared to HL-60 cells” value was “two-fold higher” and the “CD11a surface expression on MSCs, result in words” value is reported as “significant increase”. In addition, the “Cell surface ligand CD11a (induction of expression)” value in assay [2] (pretreatment of huMSCs) is listed as “A”. Besides, the EC50 in assay [2] (pretreatment of huMSCs, hydrochloride) is 8e-07 M.
